Source: publication PMC8655237 (Journal of Advanced Research, 2021)
Where a SMILES comes first, the peptide text is derived from it. [ ]: non-standard residue; d: D form. The star is where a group is joined. Sta = CC(C)C[C@H](N)[C@@H](O)CC(=O)O; Isovaleryl = CC(C)CC(=O)*

Columns and labels:
FaDu [1] = test: MTT antiproliferative assay; assay type: cell-based; conditions: Homo sapiens, 24 h, read-out: IC50 (MTT)
K562 [2] = test: MTT antiproliferative assay; assay type: cell-based; conditions: Homo sapiens, K562, 24 h, read-out: IC50 (MTT)
FaDu [3] = test: NRU antiproliferative assay; assay type: cell-based; conditions: Homo sapiens, 24 h, read-out: IC50 (NRU)
K562 [4] = test: NRU antiproliferative assay; assay type: cell-based; conditions: Homo sapiens, K562, 24 h, read-out: IC50 (NRU)
FaDu [5] = test: SRB antiproliferative assay; assay type: cell-based; conditions: Homo sapiens, 24 h, read-out: IC50 (SRB)
K562 [6] = test: SRB antiproliferative assay; assay type: cell-based; conditions: Homo sapiens, K562, 24 h, read-out: IC50 (SRB)
tubulin protein = tubulin protein (Sus scrofa, UniProt P02550+P02554); test: Tubulin polymerization assay; assay type: biochemical; conditions: 10 μM
Sequence of tubulin protein (P02550 whole entry): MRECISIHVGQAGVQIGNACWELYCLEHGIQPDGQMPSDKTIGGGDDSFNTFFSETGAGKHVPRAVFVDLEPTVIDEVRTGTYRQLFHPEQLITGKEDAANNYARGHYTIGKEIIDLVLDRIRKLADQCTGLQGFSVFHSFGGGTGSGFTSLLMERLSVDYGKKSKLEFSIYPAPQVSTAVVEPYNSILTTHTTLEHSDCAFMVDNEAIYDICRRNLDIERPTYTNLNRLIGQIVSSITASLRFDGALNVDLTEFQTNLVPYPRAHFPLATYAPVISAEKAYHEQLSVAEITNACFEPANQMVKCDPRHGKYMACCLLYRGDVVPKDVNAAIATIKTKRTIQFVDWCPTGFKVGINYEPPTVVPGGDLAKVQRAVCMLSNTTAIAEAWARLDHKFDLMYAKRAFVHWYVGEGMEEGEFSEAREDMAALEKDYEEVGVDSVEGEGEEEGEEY
Sequence of tubulin protein (P02554 whole entry): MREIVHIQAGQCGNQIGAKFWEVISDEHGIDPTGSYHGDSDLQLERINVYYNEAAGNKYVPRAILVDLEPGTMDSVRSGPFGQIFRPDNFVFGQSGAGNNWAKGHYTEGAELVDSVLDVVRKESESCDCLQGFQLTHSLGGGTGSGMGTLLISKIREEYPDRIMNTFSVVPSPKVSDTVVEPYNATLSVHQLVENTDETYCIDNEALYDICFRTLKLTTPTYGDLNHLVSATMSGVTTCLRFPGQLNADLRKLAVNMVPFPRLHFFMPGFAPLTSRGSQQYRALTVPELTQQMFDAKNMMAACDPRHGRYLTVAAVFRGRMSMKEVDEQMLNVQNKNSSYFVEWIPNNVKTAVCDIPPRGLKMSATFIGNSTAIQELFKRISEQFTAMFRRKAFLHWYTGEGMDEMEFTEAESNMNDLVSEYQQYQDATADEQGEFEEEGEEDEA

hyaluronidase (HYAL) [7] = test: Hyaluronidase assay, cell-free; assay type: biochemical; conditions: read-out: IC50 HYAL; cell free (In vitro)
hyaluronidase (HYAL) [8] = test: Hyaluronidase assay, cell-based; parameters: species or system human
HYAL mRNA = test: Real-time qPCR expression analysis; assay type: cell-based, human; conditions: GAPDH internal control
DHFR mRNA = test: Real-time qPCR expression analysis; assay type: cell-based, human; conditions: GAPDH internal control
[9] = tested on: Ornithine decarboxylase (ODC); test: ODC assay, cell-free; assay type: biochemical; conditions: read-out: IC50 ODC; cell free (In vitro)
ODC mRNA = test: Real-time qPCR expression analysis; assay type: cell-based, human; conditions: GAPDH internal control
A549 [10] = test: MTT antiproliferative assay; assay type: cell-based; conditions: Homo sapiens, A549, 24 h, read-out: IC50 (MTT)
A549 [11] = test: NRU antiproliferative assay; assay type: cell-based; conditions: Homo sapiens, A549, 24 h, read-out: IC50 (NRU)
A549 [12] = test: SRB antiproliferative assay; assay type: cell-based; conditions: Homo sapiens, A549, 24 h, read-out: IC50 (SRB)
PC-3 [13] = test: MTT antiproliferative assay; assay type: cell-based; conditions: Homo sapiens, PC-3, 24 h, read-out: IC50 (MTT)
A431 [14] = test: MTT antiproliferative assay; assay type: cell-based; conditions: Homo sapiens, A-431, 24 h, read-out: IC50 (MTT)
MDA-MB-231 [15] = test: MTT antiproliferative assay; assay type: cell-based; conditions: Homo sapiens, MDA-MB-231, 24 h, read-out: IC50 (MTT)
PC-3 [16] = test: NRU antiproliferative assay; assay type: cell-based; conditions: Homo sapiens, PC-3, 24 h, read-out: IC50 (NRU)
A431 [17] = test: NRU antiproliferative assay; assay type: cell-based; conditions: Homo sapiens, A-431, 24 h, read-out: IC50 (NRU)
MDA-MB-231 [18] = test: NRU antiproliferative assay; assay type: cell-based; conditions: Homo sapiens, MDA-MB-231, 24 h, read-out: IC50 (NRU)
PC-3 [19] = test: SRB antiproliferative assay; assay type: cell-based; conditions: Homo sapiens, PC-3, 24 h, read-out: IC50 (SRB)
A431 [20] = test: SRB antiproliferative assay; assay type: cell-based; conditions: Homo sapiens, A-431, 24 h, read-out: IC50 (SRB)
MDA-MB-231 [21] = test: SRB antiproliferative assay; assay type: cell-based; conditions: Homo sapiens, MDA-MB-231, 24 h, read-out: IC50 (SRB)
A431 cells [22] = test: DCFH-DA ROS assay; assay type: cell-based, human; conditions: A431, flow cytometry, 1 µM
A431 cells [23] = test: Mitochondrial membrane potential; assay type: cell-based, human; conditions: A431, flow cytometry, 1 µM
CAT D mRNA = test: Real-time qPCR expression analysis; assay type: cell-based, human; conditions: GAPDH internal control
LOX-5 mRNA = test: Real-time qPCR expression analysis; assay type: cell-based, human; conditions: GAPDH internal control
[24] = tested on: Ehrlich Ascites Carcinoma (EAC); test: Ehrlich ascites carcinoma; assay type: in vivo, Swiss albino mice; conditions: 20 mg/kg bw i.p., day 1-9
[25] = MDA-MB-231, with respect to control

With `COc1cc([C@@H]2c3cc4c(cc3[C@H](O)[C@H]3COC(=O)[C@H]23)OCO4)cc(OC)c1OC` [Podophyllotoxin] the IC50 (FaDu [1]) was 16.2 ± 1.04 µM, the IC50 (K562 [2]) was 46.4 ± 4.27 µM and the IC50 (FaDu [3]) was 25.3 ± 0.28 µM. The IC50 (K562 [4]) was 32.3 ± 3.11 µM, the IC50 (FaDu [5]) was 34.1 ± 1.79 µM and the IC50 (K562 [6]) was 50.26 ± 0.45 µM. The “effect on tubulin polymerization” value (tubulin protein) was “inhibit the polymerization of α and β tubulin”.

Compound `CC(=O)N[C@@H](CS)C(=O)O` [NAC, N-acetyl cysteine] has an IC50 (hyaluronidase (HYAL) [7]) of 5.92 ± 0.7 µM, an IC50 (hyaluronidase (HYAL) [8]; read-out: IC50 HYAL, A431) of 8.2 ± 1.42 µM and an IC50 (hyaluronidase (HYAL) [8]; read-out: IC50 HYAL, A549) of 13.7 ± 4.37 µM. The IC50 (hyaluronidase (HYAL) [8]; read-out: IC50 HYAL, FaDu) was 7.44 ± 0.67 µM, the IC50 (hyaluronidase (HYAL) [8]; read-out: IC50 HYAL, K562) was 7.56 ± 0.59 µM and the IC50 (hyaluronidase (HYAL) [8]; read-out: IC50 HYAL, MDA-MB-231) was 14.6 ± 3.07 µM. For the same compound, the IC50 (hyaluronidase (HYAL) [8]; read-out: IC50 HYAL, PC-3) was 9.44 ± 3.13 µM, the “HYAL mRNA expression level” value (HYAL mRNA; A431, with respect to control) was 4.50 fold change and the “HYAL mRNA expression level” value (HYAL mRNA; A549, with respect to control) was 4.09 fold change. For the same compound, the “HYAL mRNA expression level” value (HYAL mRNA; FaDu, with respect to control) was 6.66 fold change, the “HYAL mRNA expression level” value (HYAL mRNA; K562, with respect to control) was 8.98 fold change and the “HYAL mRNA expression level” value (HYAL mRNA; [25]) was 6.87 fold change. For the same compound, the “HYAL mRNA expression level” value (HYAL mRNA; PC-3, with respect to control) was 5.64 fold change.

For `CN(Cc1cnc2nc(N)nc(N)c2n1)c1ccc(C(=O)N[C@@H](CCC(=O)O)C(=O)O)cc1` [MTX, Methotrexate], the “DHFR mRNA expression level” value (DHFR mRNA; A431, with respect to control) was 2.92 fold change, the “DHFR mRNA expression level” value (DHFR mRNA; A549, with respect to control) was 2.20 fold change and the “DHFR mRNA expression level” value (DHFR mRNA; FaDu, with respect to control) was 2.82 fold change. The “DHFR mRNA expression level” value (DHFR mRNA; K562, with respect to control) was 2.20 fold change, the “DHFR mRNA expression level” value (DHFR mRNA; [25]) was 2.59 fold change and the “DHFR mRNA expression level” value (DHFR mRNA; PC-3, with respect to control) was 2.0 fold change.

For `NCCC[C@](N)(C(=O)O)C(F)F` [DFMO, α-difluoromethylornithine], the IC50 [9] was 7.54 ± 5.8 µM, the “ODC mRNA expression level” value (ODC mRNA; A431, with respect to control) was 5.42 fold change and the “ODC mRNA expression level” value (ODC mRNA; A549, with respect to control) was 4.24 fold change. The “ODC mRNA expression level” value (ODC mRNA; FaDu, with respect to control) was 2.57 fold change, the “ODC mRNA expression level” value (ODC mRNA; K562, with respect to control) was 4.07 fold change and the “ODC mRNA expression level” value (ODC mRNA; [25]) was 3.67 fold change. The “ODC mRNA expression level” value (ODC mRNA; PC-3, with respect to control) was 6.55 fold change.

`CC(=O)O[C@H]1C(=O)[C@@]2(C)[C@H]([C@H](OC(=O)c3ccccc3)[C@]3(O)C[C@H](OC(=O)[C@H](O)[C@@H](NC(=O)c4ccccc4)c4ccccc4)C(C)=C1C3(C)C)[C@]1(OC(C)=O)CO[C@@H]1C[C@@H]2O` [Taxol, paclitaxel] gave an IC50 (A549 [10]) of 2.1 ± 0.81 µM, an IC50 (A549 [11]) of 1.18 ± 0.13 µM and an IC50 (A549 [12]) of 1.15 ± 0.16 µM. The “effect on tubulin polymerization” value (tubulin protein) was “stabilizes the tubulin polymerization”.

Compound `COc1cccc2c1C(=O)c1c(O)c3c(c(O)c1C2=O)C[C@@](O)(C(=O)CO)C[C@@H]3O[C@H]1C[C@H](N)[C@H](O)[C@H](C)O1` [Doxorubicin, reference compound] has an IC50 (PC-3 [13]) of 2.24 ± 1.56 µM, an IC50 (A431 [14]) of 1.6 ± 0.09 µM and an IC50 (MDA-MB-231 [15]) of 1.55 ± 0.95 µM. For the same compound, the IC50 (PC-3 [16]) was 1.2 ± 0.36 µM, the IC50 (A431 [17]) was 1.15 ± 0.37 µM and the IC50 (MDA-MB-231 [18]) was 3.64 ± 1.8 µM. It also gave an IC50 (PC-3 [19]) of 3 ± 1.16 µM, an IC50 (A431 [20]) of 1.21 ± 0.03 µM and an IC50 (MDA-MB-231 [21]) of 1.51 ± 0.86 µM. The “total mean of DCF positive cells” value (A431 cells [22]) was 370 ± 14.14 and the “total of FITC mean (Rh123)” value (A431 cells [23]) was 2735 ± 5.65.

In the case of `CC(C)CC(=O)N[C@H](C(=O)N[C@H](C(=O)N[C@@H](CC(C)C)[C@@H](O)CC(=O)N[C@@H](C)C(=O)N[C@@H](CC(C)C)[C@@H](O)CC(=O)O)C(C)C)C(C)C` [PEP A, pepstatin A, reference compound] (Isovaleryl-VV[Sta]A[Sta]-OH), the “CAT D mRNA expression level” value (CAT D mRNA; A431, with respect to control) is reported as 1.61 fold change, the “CAT D mRNA expression level” value (CAT D mRNA; A549, with respect to control) is reported as 2.77 fold change and the “CAT D mRNA expression level” value (CAT D mRNA; FaDu, with respect to control) is reported as 2.22 fold change. For the same compound, the “CAT D mRNA expression level” value (CAT D mRNA; K562, with respect to control) was 3.12 fold change, the “CAT D mRNA expression level” value (CAT D mRNA; [25]) was 1.81 fold change and the “CAT D mRNA expression level” value (CAT D mRNA; PC-3, with respect to control) was 1.66 fold change.

For `CC(c1cc2ccccc2s1)N(O)C(N)=O` (stereo not drawn) [Zileuton], the “LOX-5 mRNA expression level” value (LOX-5 mRNA; A431, with respect to control) was 3.10 fold change, the “LOX-5 mRNA expression level” value (LOX-5 mRNA; FaDu, with respect to control) was 2.96 fold change and the “LOX-5 mRNA expression level” value (LOX-5 mRNA; K562, with respect to control) was 3.01 fold change. For the same compound, the “LOX-5 mRNA expression level” value (LOX-5 mRNA; [25]) was 3.09 fold change and the “LOX-5 mRNA expression level” value (LOX-5 mRNA; PC-3, with respect to control) was 2.22 fold change.

With `O=c1[nH]cc(F)c(=O)[nH]1` [5-fluorouracil, reference compound] the “reduction of EAC tumor formation (tumor growth inhibition)” value [24] was 98.39%.
